# Source: PMC3163380, “Design, Synthesis and Biological Evaluation of Novel Pyrimido[4,5-d]pyrimidine CDK2 Inhibitors as Anti-Tumor Agents” (Scientia Pharmaceutica, 2011)
# How the values were obtained:
# CDK2/CyclinA = target: T1, CDK2/CyclinA (Homo sapiens, UniProt P24941); assay: CDK2/cyclinA enzymatic activity inhibition assay (32P-ATP, histone H1); format: biochemical; conditions: mean of at least two independent experiments
# T1 construct: hexa-histidine (N); made in house; host or cells: sf21 insect cells (baculovirus)
# CDK4/CyclinD = CDK4/CyclinD (Homo sapiens, UniProt P11802); assay: CDK4/CyclinD inhibition assay; format: biochemical; conditions: mean of at least two independent experiments
# CDK4/CyclinD, sequence (P11802 whole entry, species assumed, the tested form may be a part): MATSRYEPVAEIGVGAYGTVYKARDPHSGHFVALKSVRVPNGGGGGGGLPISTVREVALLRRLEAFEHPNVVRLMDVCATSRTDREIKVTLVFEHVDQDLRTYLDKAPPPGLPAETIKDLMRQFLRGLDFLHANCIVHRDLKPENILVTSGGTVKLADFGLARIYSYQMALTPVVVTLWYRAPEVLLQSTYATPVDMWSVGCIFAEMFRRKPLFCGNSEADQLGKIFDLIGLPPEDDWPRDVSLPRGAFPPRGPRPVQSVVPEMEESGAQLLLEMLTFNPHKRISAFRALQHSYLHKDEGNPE
# CDK4/CyclinD, sequence (P24385 whole entry partner, species assumed, the tested form may be a part): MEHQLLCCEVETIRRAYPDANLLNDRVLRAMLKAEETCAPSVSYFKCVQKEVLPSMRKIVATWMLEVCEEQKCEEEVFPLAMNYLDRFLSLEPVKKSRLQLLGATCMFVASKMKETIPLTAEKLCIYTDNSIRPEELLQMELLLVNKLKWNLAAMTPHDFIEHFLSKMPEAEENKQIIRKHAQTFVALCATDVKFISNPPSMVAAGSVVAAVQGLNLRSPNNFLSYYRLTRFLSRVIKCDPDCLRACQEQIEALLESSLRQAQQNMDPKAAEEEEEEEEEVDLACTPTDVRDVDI
# [1] = target: T2, human EGFR tyrosine kinase domain (Homo sapiens, UniProt P00533); assay: EGFR tyrosine kinase inhibition assay; format: biochemical; conditions: mean of at least two independent experiments
# T2 construct: C-terminal human EGFR tyrosine kinase domain
# T2 sequence (P00533 712-979 limits assumed): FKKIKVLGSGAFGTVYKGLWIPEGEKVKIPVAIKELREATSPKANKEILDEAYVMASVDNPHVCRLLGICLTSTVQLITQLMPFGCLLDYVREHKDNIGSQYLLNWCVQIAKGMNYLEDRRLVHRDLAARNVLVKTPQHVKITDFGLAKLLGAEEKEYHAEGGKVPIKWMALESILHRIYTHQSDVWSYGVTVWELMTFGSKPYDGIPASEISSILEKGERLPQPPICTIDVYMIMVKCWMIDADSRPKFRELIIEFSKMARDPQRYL
# HOP-92 = assay: NCI primary anti-cancer assay (SRB), HOP-92; format: cell-based; conditions: Homo sapiens; 10^−5M; Non-Small Cell Lung Cancer HOP-92; read-out: Growth Inhibition %
# Description: (§1) Evaluation of anti-cancer activities on pyrimido[4,5-d]pyrimidine derivatives were performed at the National Cancer Institute (NCI) USA. First the newly synthesized compounds have been evaluated in primary anti-cancer assay at 10^−5M concentration against 60 human tumor cell lines then the active compounds were tested at 5 different concentrations against the same 60 human tumor cell lines. The biological data for the newly synthesized compounds are compiled in table 2
# (§2) The cytotoxic activity was measured in vitro for the newly synthesized compounds using the SulfoRhodamine-B stain (SRB) assay using the method of Skehan. Cells were plated in 96-multiwell microtiter plate (10^4 cells/well) for 24 h before treatment with the compound(s) to allow attachment of cell to the wall of the plate. Tested compounds were dissolved in DMSO and diluted with saline to the appropriate volume. Triplicate wells were prepared for each individual dose. Monolayer cells were incubated with the compound(s) for 48 h at 37 °C and in atmosphere of 5% CO2. After 48 h, cells were fixed, washed, and stained for 30 min with 0.4% (wt/vol) with SRB dissolved in 1% acetic acid. Unbound dye was removed by four washes with 1% acetic acid, and attached stain was recovered with Tris-EDTA buffer. Color intensity was measured in an ELISA reader. The relation between surviving fraction and drug concentration is plotted to get the survival curve for tumor cell line after the specified time.
# T-47D = assay: NCI primary anti-cancer assay (SRB), T-47D; format: cell-based; conditions: Homo sapiens, T47D; 10^−5M; Breast Cancer T-47D; read-out: Growth Inhibition %
# Description: as §1, §2
# RXF 393 = assay: NCI primary anti-cancer assay (SRB), RXF 393; format: cell-based, human; conditions: Renal Cancer RXF 393; for inhibition at 10 µM: Homo sapiens, RXF 393, 10^−5M, read-out: Growth Inhibition %
# Description: as §1, §2
# A549/ATCC = assay: NCI primary anti-cancer assay (SRB), A549/ATCC; format: cell-based; conditions: Homo sapiens; 10^−5M; Non-Small Cell Lung Cancer A549/ATCC; read-out: Growth Inhibition %
# Description: as §1, §2
# MDA-MB-231/ATCC = assay: NCI primary anti-cancer assay (SRB), MDA-MB-231/ATCC; format: cell-based; conditions: Homo sapiens; 10^−5M; Breast Cancer MDA-MB-231/ATCC; read-out: Growth Inhibition %
# Description: as §1, §2
# IGROV1 = assay: NCI primary anti-cancer assay (SRB), IGROV1; format: cell-based; conditions: Homo sapiens, IGROV-1; 10^−5M; Ovarian Cancer IGROV1; read-out: Growth Inhibition %
# Description: as §1, §2
# HL-60(TB) = assay: NCI primary anti-cancer assay (SRB), HL-60(TB); format: cell-based; conditions: Homo sapiens; 10^−5M; Leukemia HL-60(TB); read-out: Growth Inhibition %
# Description: as §1, §2
# K-562 = assay: NCI primary anti-cancer assay (SRB), K-562; format: cell-based; conditions: Homo sapiens, K562; 10^−5M; Leukemia K-562; read-out: Growth Inhibition %
# Description: as §1, §2
# RPMI-8226 = assay: NCI primary anti-cancer assay (SRB), RPMI-8226; format: cell-based; conditions: Homo sapiens; 10^−5M; Leukemia RPMI-8226; read-out: Growth Inhibition %
# Description: as §1, §2
# UACC-257 = assay: NCI primary anti-cancer assay (SRB), UACC-257; format: cell-based; conditions: Homo sapiens; 10^−5M; Melanoma UACC-257; read-out: Growth Inhibition %
# Description: as §1, §2
# SF-539 = assay: NCI primary anti-cancer assay (SRB), SF-539; format: cell-based; conditions: Homo sapiens; 10^−5M; CNS Cancer SF-539; read-out: Growth Inhibition %
# Description: as §1, §2
# MOLT-4 = assay: NCI primary anti-cancer assay (SRB), MOLT-4; format: cell-based; conditions: Homo sapiens; 10^−5M; Leukemia MOLT-4; read-out: Growth Inhibition %
# Description: as §1, §2
# UO-31 = assay: NCI primary anti-cancer assay (SRB), UO-31; format: cell-based; conditions: Homo sapiens; 10^−5M; Renal Cancer UO-31; read-out: Growth Inhibition %
# Description: as §1, §2
# SNB-75 = assay: NCI primary anti-cancer assay (SRB), SNB-75; format: cell-based; conditions: Homo sapiens; 10^−5M; CNS Cancer SNB-75; read-out: Growth Inhibition %
# Description: as §1, §2
# [2] = test system: 60 human tumor cell lines; assay: NCI primary anti-cancer assay, summary over tumor cell lines; format: cell-based; conditions: 10^−5M, Non-small cell lung cancer, Ovarian cancer, Leukemia and Melanoma lines / different tumor cell lines, read-out: growth inhibitions (range over cell lines)
# Description: as §1, §2
# OVCAR-8 = assay: NCI primary anti-cancer assay (SRB), OVCAR-8; format: cell-based; conditions: Homo sapiens; 10^−5M; Ovarian Cancer OVCAR-8; read-out: Growth Inhibition %
# Description: as §1, §2
# HS 578T = assay: NCI primary anti-cancer assay (SRB), HS 578T; format: cell-based; conditions: Homo sapiens; 10^−5M; Breast Cancer HS 578T; read-out: Growth Inhibition %
# Description: as §1, §2
SMILES,IC50 (CDK2/CyclinA) [µM],IC50 (CDK4/CyclinD) [µM],IC50 CDK4/CyclinD (CDK4/CyclinD),IC50 [1] [µM],inhibition at 10 µM (HOP-92) [%],inhibition at 10 µM (T-47D) [%],inhibition at 10 µM (RXF 393) [%],melting point [°C],inhibition at 10 µM (A549/ATCC) [%],inhibition at 10 µM (MDA-MB-231/ATCC) [%],inhibition at 10 µM (IGROV1) [%],inhibition at 10 µM (HL-60(TB)) [%],inhibition at 10 µM (K-562) [%],inhibition at 10 µM (RPMI-8226) [%],inhibition at 10 µM (UACC-257) [%],inhibition at 10 µM (MOLT-4) [%],inhibition at 10 µM (UO-31) [%],inhibition at 10 µM (SNB-75) [%],other results
"O=c1[nH]c(SCc2ccccc2)nc2nc(Nc3ccc(NC(=S)Nc4ccccc4)cc3)nc(-c3ccc(O)cc3O)c12 [Compound 6a, 1-(4-{[7-(Benzylsulfanyl)-4-(2,4-dihydroxyphenyl)-5-oxo-5,6-dihydro-pyrimido[4,5-d]pyrimidin-2-yl]amino}phenyl)-3-phenylthiourea]",5,> 10,no activity,9.3,103,26.9,33.8,> 300,,,,,,,,,,,
"Cc1nc(Nc2ccc(NC(=S)Nc3ccccc3)cc2)nc2nc(SCc3ccccc3)[nH]c(=O)c12 [Compound 6c, 1-(4-{[7-(Benzylsulfanyl)-4-methyl-5-oxo-5,6-dihydropyrimido[4,5-d]pyrimidin-2-yl]amino}-phenyl)-3-phenylthiourea]",1.5,3.11,,> 10,,,124,> 300,42.1,23.1,34.3,24,27.9,33,25.2,,,,Growth Inhibition % (RXF 393; 10^−5M): 124.01%; inhibition at 10 µM (SF-539): 36.7%
"Cc1cc(C)nc(NS(=O)(=O)c2ccc(Nc3nc(C)c4c(=O)[nH]c(SCc5ccccc5)nc4n3)cc2)n1 [Compound 6d, 4-{[7-(Benzylsulfanyl)-4-methyl-5-oxo-5,6-dihydropyrimido[4,5-d]pyrimidin-2-yl]amino}-N-(4,6-dimethylpyrimidin-2-yl)benzenesulfonamide]",2.5,0.66,,7.8,27,,,> 300,21.2,,,,,,,43.4,,,
"Cc1cc(C)nc(NS(=O)(=O)c2ccc(Nc3nc(C)c4c(=O)[nH]c(NCc5ccccc5)nc4n3)cc2)n1 [Compound 7c, 4-{[7-(Benzylamino)-4-methyl-5-oxo-5,6-dihydropyrimido[4,5-d]pyrimidin-2-yl]amino}-N-(4,6-dimethylpyrimidin-2-yl)benzenesulfonamide]",2.6,> 10,no activity,6.6,,23.4,,,64.4,,61.7,23.1,32.8,50.7,71.4,22.6,39.5,43.1,inhibition at 10 µM [2]: 50 to 70%
"O=c1[nH]c(Nc2cccc(Cl)c2)nc2nc(Nc3ccc(NC(=S)Nc4ccccc4)cc3)nc(-c3ccc(O)cc3O)c12 [Compound 7d, 1-[4-({7-[(3-Chlorophenyl)amino]-4-(2,4-dihydroxyphenyl)-5-oxo-5,6-dihydro-pyrimido[4,5-d]pyrimidin-2-yl}amino)phenyl]-3-phenylthiourea]",> 10,6.88,very poor activity,> 10,,,,> 300,44.7,21.4,39.7,,,30.4,79.5,,30.7,,inhibition at 10 µM (OVCAR-8): 26.8%
"Cc1nc(Nc2ccc(NC(=S)Nc3ccccc3)cc2)nc2nc(Nc3cccc(Cl)c3)[nH]c(=O)c12 [Compound 7e, 1-[4-({7-[(3-Chlorophenyl)amino]-4-methyl-5-oxo-5,6-dihydropyrimido[4,5-d]pyrimidin-2-yl}amino)phenyl]-3-phenylthiourea]",0.25,2.55,,4.9,39.6,,113,,,,,42.9,28.2,42.8,,35,,,inhibition at 10 µM (HS 578T): 32.9%; inhibition at 10 µM (SF-539): 23.5%
"Cc1cc(C)nc(NS(=O)(=O)c2ccc(Nc3nc(C)c4c(=O)[nH]c(Nc5cccc(Cl)c5)nc4n3)cc2)n1 [Compound 7f, 4-({7-[(3-Chlorophenyl)amino]-4-methyl-5-oxo-5,6-dihydropyrimido[4,5-d]pyrimidin-2-yl}amino)-N-(4,6-dimethylpyrimidin-2-yl)benzenesulfonamide]",0.05,0.86,,> 10,34.8,,,> 300,52,30.4,54.4,21.6,26.5,58.9,57.9,,40.3,28.5,inhibition at 10 µM (OVCAR-8): 21.8%; inhibition at 10 µM [2]: 50 to 70%
"Cc1cc(C)nc(NS(=O)(=O)c2ccc(Nc3nc(C)c4c(=O)[nH]c(Nc5ccc(S(=O)(=O)O)cc5)nc4n3)cc2)n1 [Compound 7i, 4-{[7-({4-[(4,6-Dimethylpyrimidin-2-yl)sulfamoyl]phenyl}amino)-5-methyl-4-oxo-3,4-dihydro-pyrimido[4,5-d]pyrimidin-2-yl]amino}benzenesulfonic acid]",> 10,> 10,no activity,8.1,,30.1,,> 300,39.1,,,,,,,,30.6,23.2,inhibition at 10 µM (HS 578T): 26.2%
